Experimental data reported in US10273313B2, “Multimeric mannosides, a process for preparing the same and their uses as a drug” (CENTRE NATIONAL DE LA RECHERCHE SCIENTIFIQUE, priority 2012, dated 2019).
Values after ≈ are worked out from the molar mass of the structure shown. Like-named read-outs stand apart in the source and are kept apart here.

How the values were obtained:
[1] = tested on: E. coli strain UTI89 in the bladder of C3H/HeN mice; assay: In vivo inhibition in the murine cystitis model (instillation with UTI89)
Procedure: In vivo inhibition was evaluated by instilling 1-4 together with the UTI89 strain via a catheter in the bladder of C3H/HeN mice. […] A group of ten animals was used for each concentration of antagonists. […] The animals were sacrificed at a 6 h post infection time.
A murine model of urinary tract infection was used to test the ability of the compounds to inhibit the colonization of UTI89 in the bladder [Hung C. S.; Dodson, K. W., Hultgren S. J. Nat. Protoc. 2009, 4, 1230-1243 and Wellens A.; Garofalo C.; Nguyen H.; Van Gerven N.; Slättegård R.; Hernalsteens, J.-P.; Wyns, L.; Oscarson, S.; De Greve H.; Hultgren S. J.; Bouckaert, J. PLoS ONE 2008, 3, e2040]. The solution with high concentration of compounds was added to the resuspension of UTI89 before given to the mice. The eight-week old Female C3H/HeN mice (Harlan, Horst, The Netherlands) were anesthetized and infected via transurethral catheterization of 10^7 CFU UTI89 in solution in PBS, or in PBS with the compound in the mentioned concentration. The mice were sacrificed at 24 hours post infection and the bladders were harvested, homogenized and resuspended in PBS. The serial dilutions were spot on LB medium agar plates. The bacterial load was determined by counting the CFU recovered from the bladder. The animal experiments were approved by the Ethical Committer for Animal Experiments of Vrije Universiteit Brussel and complied with all relevant national legislation and institutional policies. The Mann-Whitney test was applied for the comparison of the data obtained from the untreated group and inhibition group in GraphPad Prism version 5.1 and two tailed P value were shown (GraphPad software).
A limited number of papers described the in vivo efficiency of anti-adhesive mannosides to treat UTIs.

[2] = tested on: type-1 piliated clinical E. coli isolate UTI89; assay: Haemagglutination inhibition assay (HIA), guinea pig erythrocytes; type: cell-based, Escherichia coli; details: read-out: Minimal inhibitory concentration (MIC) on haemagglutination
Procedure: Haemagglutination is observed as the red blood cells being held in suspension through the formation of a space-filling cross-linked network with the fimbriated bacteria.
The UIT89 clinical isolate was grown statically 37° C. for 48 hours in LB medium and analysed for haemagglutination of guinea pig red blood cells. Both bacteria and red blood cells (RBCs) were washed 3 times in ice-cold PBS (17 mM K/NaH2PO4, 150 mM NaCl). PBS was used for all dilutions. 96-well round-bottom microtiter plates were used for the dilutions. The titer for agglutination was determined in a 2-fold dilution series in PBS of the bacteria in a volume of 25 μL. Well 1 is a negative control without bacteria but 25 μL PBS. 25 μL PBS and 50 μL 5% RBCs were added to a final 100 μL volume. Upon 1 hour at 4° C., the titer was determined as the lowest concentration of bacteria that led to haemagglutination.
A bacterial concentration of twice the determined haemagglutination titer was kept constant in the haemagglutination inhibition assays. First, a 2-fold dilution series of the inhibitory compounds was performed in 25 μL PBS. Instead, in well 1 only 25 μL PBS was added as a negative control. 25 μL of the bacterial solution and 50 μl of 5% red blood cells were added to reach a final volume of 100 μL.

[3] = tested on: bladder cell line 5637; assay: Anti-adhesives for bacterial bladder cell binding; type: cell-based; details: ten-fold dilution series
Procedure: The anti-adhesive capacities of the HM-derivatized cyclodextrins 1-4 were tested in vitro on the bladder cell line 5637, in a procedure analogous as previously described (Wellens, A. et al., PLoS ONE 3: e2040 (2008)). The CD conjugates 1-4 were diluted in a ten-fold series. The minimum inhibitory concentrations (MIC) indicate the concentrations of sugars at which we see some inhibition of binding of FimH to the bladder cells, they do however not indicate complete inhibition. MIC values for the CD-conjugates 1-4 followed a similar trend as the inhibitory concentrations recorded in HIA.
The anti-adhesive capacities of the n-heptyl α-D-mannoside-derivatized cyclodextrins 1-4 were tested in vitro on the bladder cell line 5637, in a procedure analogous to as described in (Wellens, A. et al., PLoS ONE 3: e2040 (2008)). The ligands have been diluted 10-fold and this is also the resolution limit of these tests.

[4] = biological target: T1, monovalent lectin domain of FimH (Escherichia coli, UniProt P08191); type: binding; details: for Kd / Molar ratio n meas / ΔG° / ΔH° / ΔS°: direct titration; for Kd: read-out: Kd
T1 construct: with the monovalent lectin domain of FimH were measured using isothermal calorimetry (ITC)
T1 sequence (P08191 22-179): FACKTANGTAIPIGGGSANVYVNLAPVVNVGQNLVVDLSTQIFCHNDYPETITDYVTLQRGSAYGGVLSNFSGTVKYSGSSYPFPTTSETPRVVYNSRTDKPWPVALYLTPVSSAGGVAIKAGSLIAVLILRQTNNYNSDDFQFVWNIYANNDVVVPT

[5] = biological target: T2, lectin domain of FimH (Escherichia coli, UniProt P08191); assay: Surface plasmon resonance solution competition assay; type: binding; details: solution affinity, inhibition of FimH binding to immobilized mannoside, CM5 chip
T2 construct: The lectin domain of FimH was expressed as described previously and purified at pH 4.0; made in house
T2 sequence (P08191 22-179): as above
Procedure: The affinity of the compounds was first evaluated and then measured in a surface plasmon resonance solution competition assay. The lectin domain of FimH was expressed as described previously and purified at pH 4.0 in 50 mM HCOOH on a SPFF (sulfopropyl fast flow) ion exchange column (GE Healthcare). A CM5 sensor chip (Biacore, GE Healthcare) has been coated with a layer of amino-functionalized monovalent heptyl mannoside to 60 RU (response units) and the kinetics of FimH binding to the sensor chip has been determined. All data collection have been performed in HBS buffer complemented with 3 mM EDTA and 0.01% Tween20. Regeneration was done with a single 10 s injection of 100 mM NaOH in water.
The solution affinity provided by the Biacore software uses the equation (B−A−Kd)/2+(0.25*(A+B+Kd)^2−A*B)^0.5, with B presenting the uninhibited concentration of FimH, and A the variable compound concentration.

[6] = tested on: UTI89 E. coli; assay: Inhibition of haemagglutination (Example 19); type: cell-based, Escherichia coli; details: two-fold dilution from 1 mM
Procedure: Interaction of E. coli FimH adhesins with the glycocalyx of guinea pig erythrocytes forms a cross-linked network into the wells. Glycoconjugates added in a two-fold dilution series prevents the agglutination reaction. The inhibition titer is defined as the lowest concentration of the glycoconjugate at which haemagglutination is still inhibited. UTI89 E. coli were grown statically overnight in LB at 37° C., washed three times in ice-cold phosphate-buffered saline and resolubilized. A two-fold dilution of glycoconjugates was prepared in 25 μL 20 mM HEPES pH 7.4 with 150 mM NaCl, starting from 1 mM as the highest concentration. The bacterial solution (25 μL) was added to the two-fold dilution series of the compound. Finally 50 μl of guinea pig red blood cells, washed in buffer and diluted to 5%, were added to a final 100 μL and left on ice for 30 min. before read-out. Due to serial dilutions, the maximal error is ±one well, or a factor two (FIG. 2).

[7] = tested on: AIEC LF82 strain adhesion to T84 intestinal epithelial cells; assay: Adhesion assay on T84 cells, cells incubated 1 h with mannoside prior infection (Example 21.1); type: cell-based, Escherichia coli
Procedure: E. coli strain LF82 was isolated from a chronic ileal lesion of a patient with Crohn's disease (CD). Bacteria were grown routinely in Luria-Bertani (LB) broth overnight at 37° C. Intestinal epithelial cells T84 derived from colonic adenocarcinoma were maintained in an atmosphere containing 5% CO2 at 37° C. in DMEM/F12 (50/50) medium supplemented with 10% (v/v) heat-inactivated fetal calf serum (FCS), 1% L-glutamine, 100 000 U·l^−1 penicillin, 100 mg·l^−1 streptomycin, 25 μg·l^−1 amphotericin B.
T84 cells were seeded in 48-well tissue culture plates with 1.5×10^5 cells per well and grown for 48 h. Cells were incubated 1 h prior infection with each mannoside at a final concentration of 100; 10; 1 or 0.1 μM in complete medium without antibiotics, containing heat inactivated fetal calf serum (FCS) and were next infected with AIEC LF82 strain at a multiplicity of infection (MOI) of 10 bacteria per cell. After a 3 h incubation period at 37° C., the monolayers were washed in phosphate-buffered saline (PBS; pH 7.2). The epithelial cells were then lysed with 1% Triton X-100 in deionized water. Samples were diluted and plated onto Luria Bertani agar plates to determine the number of cfu recovered from the lysed monolayers.
Results were expressed in percentage of residual adhesion, considering adhesion level of AIEC LF82 without mannoside treatment as 100%.

[8] = tested on: AIEC strain LF82 adhesion to T84 intestinal epithelial cells; assay: Adhesion assay on T84 cells with thiazolylaminomannosides (Example 22.3); type: cell-based, Escherichia coli
Procedure: T84 Intestinal Epithelial cells (overexpressing the receptor CEACAM6) were beforehand incubated for 1 h with the synthetic thiazolylaminomannosides 6-20 (examples 3-17) at different concentrations. Each compound was tested four times at concentrations of 0.1, 1, 10 and 100 μM.
The cells were then infected in the presence of inhibitory compounds by the AIEC strain of reference LF82 for 3 hours at a multiplicity of infection of 10 bacteria to a cell. After 3 h of incubation, the monolayer was washed and the number of AIEC bacteria associated with cells was counted. The level of adhesion of AIEC LF82 strain in the presence of inhibitors (residual adhesion) was expressed relatively to the level of adherence in the absence of any treatment (considered 100%) (FIG. 10).

[9] = tested on: primary human peripheral venous blood monocyte-derived macrophages; assay: Macrophage-mediated phagocytosis of aged PMN cells; type: cell-based; details: 500 nM
Description: To estimate the influence of mannose-based inhibitors on possible inhibition of phagocytosis we used primary human peripheral venous blood monocyte-derived macrophages and estimated their ability to phagocyte autologous and allogenic human blood-derived PMN cells, as described by us previous (Bilyy, R. O. et al. (2012) J Biol Chem 287, 496-503).
Primary human PMN and MoMa from healthy volunteers were used. Monocytes were isolated from peripheral blood by LymphoPrep® gradient according to manufacture's recommendations for isolation of PBMC fraction. Plastic-attached cells of PBMC fraction were then cultured for 7 days in the presence of GM-CSF (100 U/ml) and autologous serum (added at days 1, 3 and 5) to generate MoMa. After 7 days of differentiation, the MoMa population was tested. They typically contain >95% CD11b+ cells, >90% CD14+ cells and >85% CD89+ cells. Phagocytosis was assessed by pre-incubation of PMN (freshly isolated or aged for 24 h) with mannose-based inhibitor for 30 min at 37° C. at Ringer buffer. Cells were thoroughly washed three times with Ringer solution and incubated with human MoMa for 2 hours. Uningested PMN were analyzed by flow cytometry (for this reason cells were pre-stained with CFSE (Rodel, F. et al. (2005) Strahlentherapie and Onkologie: Organ der Deutschen Rontgengesellschaft . . . [et al] 181, 456-462)) or in the hemocytometric chamber using Zeiss AxioImager A1 microscope. The percentage of prey cells that had been bound to or taken up by MoMa (% of phagocytosis) was calculated.

[10] = excluding spiky heat signals (2)

OCC1OC(OCCCCCCCOCc2cn(CCOCCOCCOCc3cn(CC4OC5OC6C(CO)OC(OC7C(CO)OC(OC8C(CO)OC(OC9C(CO)OC(OC%10C(CO)OC(OC%11C(CO)OC(OC4C(O)C5O)C(O)C%11O)C(O)C%10O)C(O)C9O)C(O)C8O)C(O)C7O)C(O)C6O)nn3)nn2)C(O)C(O)C1O (stereo not shown) [Compound 3]
Inhibition efficiency at decreased concentration ([1]; 0.1 mM): important drop in the inhibition efficiency | Reduction of the level of infection ([1]; instillation of 1 mM with UTI89): 10 fold | MIC ([2]; UTI89 1.2 10^9 CFU/ml): 200 µM (≈ 341 µg/mL) | MIC ([2]; UTI89 1.4 10^8 CFU/ml): 50 µM (≈ 85.3 µg/mL) | MIC ([2]; UTI89 7 10^7 CFU/ml): 31 µM (≈ 52.9 µg/mL) | MIC, anti-adhesive potency on bladder cell line 5637 [3]: >400000 nM | Affinity of FimH for the ligand (in words) ([4]; ITC): micromolar range | Kd ([4]; data processed to exclude spiky heat signals (2)): 1950 nM | Kd ([4]; data processed to include the whole binding event (1)): 4570 nM | Molar ratio n meas [4, 10]: 0.57 | ΔG° [4, 10]: -7.7 kcal/mol | ΔH° [4, 10]: -4.8 kcal/mol | ΔS° [4, 10]: 9.9 cal/mol/deg | Molar ratio n meas ([4]; whole binding event (1)): 0.45 | ΔG° ([4]; whole binding event (1)): -7.2 kcal/mol | ΔH° ([4]; whole binding event (1)): -10.0 kcal/mol | ΔS° ([4]; whole binding event (1)): −9.6 cal/mol/deg

COc1ccn([C@H]2OC(CO)[C@@H](O)C(O)C2O)c(=S)n1 (stereo partly drawn) [NM30, 1-(2,3,4,6-tetrahydroxy-α-D-mannopyranosyl)-4-methoxypyrimidine-2(1H)-(thi)one]
Kd [5]: 920 nM | Inhibitory potency in haemagglutination (FIG. 2) [6]: non-effectiveness

Nc1ccn([C@H]2OC(CO)[C@@H](O)C(O)C2O)c(=S)n1 (stereo partly drawn) [NM34, 4-amino-1-(2,3,4,6-tetrahydroxy-α-D-mannopyranosyl)pyrimidine-2(1H)-(thi)one]
Kd [5]: 2370 nM | Inhibitory potency in haemagglutination (FIG. 2) [6]: non-effectiveness

O=C[C@@H](O)[C@@H](O)[C@H](O)[C@H](O)CO [mannose, reference compound]
Concentration reaching around 75% of binding inhibition (25% line) [7]: 50000 µM | Concentration necessary to achieve a similar percentage of residual adhesion (decrease greater than 95%) [8]: 100 mM | Decrease of adherence to intestinal epithelial cells ([8]; 100 μM): about 25%

CO[C@H]1O[C@H](CO)[C@@H](O)[C@H](O)[C@@H]1O [αMM, α-D-methyl mannoside]
Phagocytosis rate [9]: significantly decreased phagocytosis rate
